Laboratory results reported in patent US20260272895A1, “METHODS AND KITS FOR DELIVERY OF COMPOUNDS INTO CELLS” (Yale University, priority 2023, published 2026).

Molecular target: T1, Slco1a4 (Mus musculus, UniProt Q9EP96)
T1 sequence (Q9EP96 1-670): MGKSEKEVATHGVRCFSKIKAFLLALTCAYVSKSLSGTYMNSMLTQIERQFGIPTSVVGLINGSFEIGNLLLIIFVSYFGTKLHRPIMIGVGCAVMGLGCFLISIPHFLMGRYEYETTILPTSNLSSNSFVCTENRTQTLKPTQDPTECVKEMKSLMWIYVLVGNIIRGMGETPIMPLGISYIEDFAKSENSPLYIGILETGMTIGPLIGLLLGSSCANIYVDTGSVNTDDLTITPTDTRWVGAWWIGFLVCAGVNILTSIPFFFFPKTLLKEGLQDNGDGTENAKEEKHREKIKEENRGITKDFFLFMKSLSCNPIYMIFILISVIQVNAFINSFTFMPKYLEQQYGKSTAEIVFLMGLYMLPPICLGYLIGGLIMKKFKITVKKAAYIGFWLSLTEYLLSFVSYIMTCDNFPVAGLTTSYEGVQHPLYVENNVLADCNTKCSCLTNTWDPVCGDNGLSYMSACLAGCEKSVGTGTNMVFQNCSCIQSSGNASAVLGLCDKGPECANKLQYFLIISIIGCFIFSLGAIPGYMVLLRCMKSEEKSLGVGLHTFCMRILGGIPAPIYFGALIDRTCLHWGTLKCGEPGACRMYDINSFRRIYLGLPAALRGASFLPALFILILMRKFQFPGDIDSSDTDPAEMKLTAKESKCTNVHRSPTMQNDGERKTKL
Experiment: In vivo two-photon imaging in Slco1a4 knockout mice (Oatp1a/1b cluster knockout)
Set-up: FLAG; expressed in transfected cells; host or cells: cortical neurons of live mice, in utero electroporation at E14/E15
Procedure: Briefly, animals are anaesthetized via intraperitoneal injections of ketamine/xylazine or via inhaled isoflurane. A region of the skull (3×3 mm) is gently removed with a high-speed drill and the underlying dura is removed. A small glass coverslip is placed over the skull to allow long term optical access for in vivo imaging. Labeling with fluorescent dyes is performed either via intravenous injections or topically application to the cortical surface for 20 min prior to glass cover placement. After recovery, in vivo images are acquired using a two-photon microscope (Bruker Technologies) equipped with a multimodal (fixed wavelength 1040 nm and tunable wavelength) InSight X3 two-photon laser (Spectra Physics) and 20× water immersion objective (Zeiss 1.0N.A.). The two-photon laser is appropriately tuned to excite particular fluorescent dyes and proteins as needed. In selected cases, following in vivo imaging, mice will be sacrificed and perfused for follow up immunohistochemistry and high-resolution confocal imaging (Leica SP8) to further confirm colocalization of dyes and cells expressing particular transporters.
One-month-old wild-type mice were anesthetized using a ketamine/xylazine solution at doses of 100 mg/kg and 10 mg/kg, respectively. The fur around the skull area was shaved, and buprenex (0.1 mg per kg) and carprofen (5 mg per kg) were administered subcutaneously. Mice were kept on a heating pad at 37° C., and anesthesia was periodically monitored. The skin was treated with povidone-iodine solution, followed by cleaning with ethanol, and eye ointment was applied. A small skin section was excised to expose the skull. Thinning of the skull was performed in a circular area, followed by delicately lifting of the remaining skull without harm to the underlying brain. Within the circular region, the dura was gently removed using fine forceps, and a 4 mm cover glass was softly pressed onto the brain surface and affixed to the skull. […]

SMILES: O=S(=O)([O-])c1cc(S(=O)(=O)O)ccc1C1=c2cc3c4c(c2Oc2cc(Br)ccc21)CCC[N+]=4CCC3 [Compound 1, 2-(12-bromo-1,2,3,5,6,7-hexahydrochromeno[2,3-f]pyrido[3,2,1-ij]quinolin-4-ium-9-yl)-5-sulfobenzenesulfonate]
- astrocyte uptake in knockout mice (Oatp1a/1b cluster knockout): Astrocyte uptake is seen in the knockout mice
- endothelial uptake in Slco1a4 knockout mice (application to cortical surface, concentration not given): complete disappearance of endothelial uptake

SMILES: COc1cc2c(c(OC)c1OC)-c1ccc(OC)c(=O)cc1C(NS(=O)(=O)c1ccc(-c3c4ccc(N(C)C)cc4[o+]c4cc(N(C)C)ccc34)c(S(=O)(=O)[O-])c1)CC2 (stereo not drawn) [Compound 47, 2-(3,6-bis(dimethylamino)xanthylium-9-yl)-5-(N-(1,2,3,10-tetramethoxy-9-oxo-5,6,7,9-tetrahydrobenzo[a]heptalen-7-yl)sulfamoyl)benzenesulfonate]
- endothelial uptake in Slco1a4 knockout mice (topical cortical administration 50 μM, compared to wildtype): complete elimination of Colchicine-eEDiTS uptake
